Several values for one entry are separate records, joined by “and”; a condition that tells them apart may be missing. Equal values may be shown once. Inconclusive results and toxic doses are left out. How the source made its calls: active means survival T/C of 150% or more; inactive means T/C below 125% in these data.
Tested on: CD2F1 mice, L1210 leukemia ip, survival T/C
Test: NCI In Vivo Anticancer Drug Screen. Data for tumor model L1210 Leukemia (intraperitoneal) in CD2F1 (CDF1) mice
Conditions: higher = longer survival
Outline: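 Antitumor effect is scored in animals hosting a serially transplanted tumor. Values compare compound-dosed animals against vehicle-only controls as a simple quotient.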

[1] = endpoint: mean survival time, dose: 50.0 mg/kg/injection, schedule: Q01DX009 (ip), vehicle: Klucel (hydroxypropylcellulose) (HPC)
[2] = endpoint: mean survival time, dose: 100.0 mg/kg/injection, schedule: Q01DX009 (ip), vehicle: Klucel (hydroxypropylcellulose) (HPC)
[3] = endpoint: mean survival time, dose: 200.0 mg/kg/injection, schedule: Q01DX009 (ip), vehicle: Klucel (hydroxypropylcellulose) (HPC)
[4] = endpoint: mean survival time, dose: 100.0 mg/kg/injection, schedule: Q01DX001 (ip), vehicle: saline with Tween-80
[5] = endpoint: mean survival time, dose: 200.0 mg/kg/injection, schedule: Q01DX001 (ip), vehicle: saline with Tween-80
[6] = endpoint: mean survival time, dose: 400.0 mg/kg/injection, schedule: Q01DX001 (ip), vehicle: saline with Tween-80
[7] = endpoint: mean survival time, dose: 6.25 mg/kg/injection, schedule: Q01DX009 (ip), vehicle: saline with Tween-80
[8] = endpoint: mean survival time, dose: 12.5 mg/kg/injection, schedule: Q01DX009 (ip), vehicle: saline with Tween-80
[9] = endpoint: mean survival time, dose: 25.0 mg/kg/injection, schedule: Q01DX009 (ip), vehicle: saline with Tween-80
[10] = endpoint: mean survival time, dose: 100.0 mg/kg/injection, schedule: Q04DX003 (ip), vehicle: saline with Tween-80
[11] = endpoint: mean survival time, dose: 100.0 mg/kg/injection, schedule: Q01DX009 (ip), vehicle: saline with Tween-80
[12] = endpoint: mean survival time, dose: 200.0 mg/kg/injection, schedule: Q01DX009 (ip), vehicle: saline with Tween-80
[13] = endpoint: mean survival time, dose: 200.0 mg/kg/injection, schedule: Q04DX003 (ip), vehicle: saline with Tween-80
[14] = endpoint: mean survival time, dose: 400.0 mg/kg/injection, schedule: Q04DX003 (ip), vehicle: saline with Tween-80
[15] = endpoint: mean survival time, dose: 50.0 mg/kg/injection, schedule: Q01DX009 (ip), vehicle: saline with Tween-80

Measured: T/C

CC1(Br)C(Sc2ccccc2[N+](=O)[O-])=Nc2ccccc21 (stereo not given)
inactive: [1] 94 % of control | [2] 94 % of control | [3] 94 % of control

c1ccc(Nc2ccc(N=Nc3nc4ccccc4s3)cc2)cc1
inactive: [4] 93 % of control | [5] 97 % of control | [6] 97 % of control

CC(=O)/C(=C\c1ccc(/C=C(\C(C)=O)C(=O)CCN(C)C)cc1)C(=O)CCN(C)C
inactive: endpoint: median survival time, dose: 25.0 mg/kg/injection, schedule: Q01DX005 (ip), vehicle: saline with Tween-80 102 % of control | endpoint: median survival time, dose: 50.0 mg/kg/injection, schedule: Q01DX005 (ip), vehicle: saline with Tween-80 102 % of control | endpoint: median survival time, dose: 100.0 mg/kg/injection, schedule: Q01DX005 (ip), vehicle: saline with Tween-80 101 % of control | endpoint: median survival time, dose: 200.0 mg/kg/injection, schedule: Q01DX005 (ip), vehicle: saline with Tween-80 98 % of control | endpoint: median survival time, dose: 400.0 mg/kg/injection, schedule: Q01DX005 (ip), vehicle: saline with Tween-80 102 % of control

CC1CC(C)(C)N=C(Cc2ccccc2)O1 (stereo not given)
inactive: [4] 101 % of control | [5] 93 % of control | [6] 96 % of control

COc1ccccc1C1N(C)CCCN1C
inactive: [7] 100 % of control | [8] 102 % of control | [9] 102 % of control

NC1(C(=O)O)CCCC1.[Pb]
inactive: endpoint: mean survival time, dose: 100.0 mg/kg/injection, schedule: Q01DX001 (ip), vehicle: saline 90 % of control

CN(C)Cc1cn(C2CC(O)C(CO)O2)c(=O)[nH]c1=O (stereo not given)
inactive: endpoint: mean survival time, dose: 12.5 mg/kg/injection, schedule: Q01DX005 (ip), vehicle: water 101 % of control | endpoint: mean survival time, dose: 25.0 mg/kg/injection, schedule: Q01DX005 (ip), vehicle: water 98 % of control | endpoint: mean survival time, dose: 50.0 mg/kg/injection, schedule: Q01DX005 (ip), vehicle: water 104 % of control | endpoint: mean survival time, dose: 100.0 mg/kg/injection, schedule: Q01DX005 (ip), vehicle: water 106 % of control | endpoint: mean survival time, dose: 200.0 mg/kg/injection, schedule: Q01DX005 (ip), vehicle: water 104 % of control

CCc1nc(N)nc(N)c1-c1ccc(Cl)c([N+](=O)[O-])c1
inactive: endpoint: mean survival time, dose: 3.12 mg/kg/injection, schedule: Q01DX009 (ip), vehicle: saline with Tween-80 101 % of control | [7] 106 % of control

Cc1cc(NCCN(C(C)C)C(C)C)nc(Nc2nc3cc(Cl)c(Cl)cc3[nH]2)n1
inactive: [7] 100 % of control | [8] 105 % of control | [9] 92 % of control | [10] 87 % of control

O=C(OCc1ccccc1)c1ccccc1
inactive: endpoint: mean survival time, dose: 100.0 mg/kg/injection, schedule: Q04DX002 (ip), vehicle: Klucel (hydroxypropylcellulose) (HPC) 90 % of control | endpoint: mean survival time, dose: 200.0 mg/kg/injection, schedule: Q04DX002 (ip), vehicle: Klucel (hydroxypropylcellulose) (HPC) 100 % of control | endpoint: mean survival time, dose: 400.0 mg/kg/injection, schedule: Q04DX002 (ip), vehicle: Klucel (hydroxypropylcellulose) (HPC) 90 % of control

CNCCOC(=O)/C=C/c1ccccc1
inactive: endpoint: mean survival time, dose: 100.0 mg/kg/injection, schedule: Q01DX009 (ip), vehicle: saline 98 % of control | endpoint: mean survival time, dose: 200.0 mg/kg/injection, schedule: Q01DX009 (ip), vehicle: saline 95 % of control | endpoint: mean survival time, dose: 400.0 mg/kg/injection, schedule: Q01DX009 (ip), vehicle: saline 95 % of control

COC(=O)N1c2ccccc2C23CCN4CCCC5(CCC12C(C(=O)O)C5)C43 (stereo not given)
inactive: endpoint: mean survival time, dose: 75.0 mg/kg/injection, schedule: Q01DX001 (ip), vehicle: other 93 % of control | endpoint: mean survival time, dose: 150.0 mg/kg/injection, schedule: Q01DX001 (ip), vehicle: other 101 % of control | endpoint: mean survival time, dose: 300.0 mg/kg/injection, schedule: Q01DX001 (ip), vehicle: other 107 % of control

N#CCCC(CCC#N)c1ccccc1
inactive: [11] 107 % of control | [10] 106 % of control | [12] 103 % of control | [13] 93 % of control | endpoint: mean survival time, dose: 400.0 mg/kg/injection, schedule: Q01DX009 (ip), vehicle: saline with Tween-80 105 % of control | [14] 104 % of control

CCC(=O)Nc1ncc([N+](=O)[O-])s1
inactive: [15] 94 % of control | [11] 100 % of control

Oc1ccc(CCl)cc1O
inactive: endpoint: mean survival time, dose: 25.0 mg/kg/injection, schedule: Q01DX001 (ip), vehicle: saline with Tween-80 107 % of control | endpoint: mean survival time, dose: 50.0 mg/kg/injection, schedule: Q01DX001 (ip), vehicle: saline with Tween-80 100 % of control | [4] 89 % of control and 103 % of control

O=C(Nc1nccs1)Nc1cc([N+](=O)[O-])ccc1F
inactive: [1] 104 % of control | [2] 96 % of control | [3] 93 % of control

S=C(NCCCCCNC(=S)Nc1ccccc1)Nc1ccccc1
inactive: endpoint: mean survival time, dose: 100.0 mg/kg/injection, schedule: Q04DX003 (ip), vehicle: acetone 96 % of control | endpoint: mean survival time, dose: 200.0 mg/kg/injection, schedule: Q04DX003 (ip), vehicle: acetone 108 % of control

N#CCCN(C(=S)Nc1cccc(C(F)(F)F)c1)C1CCCCC1
inactive: endpoint: mean survival time, dose: 12.5 mg/kg/injection, schedule: Q01DX009 (ip), vehicle: Klucel (hydroxypropylcellulose) (HPC) 92 % of control | endpoint: mean survival time, dose: 25.0 mg/kg/injection, schedule: Q01DX009 (ip), vehicle: Klucel (hydroxypropylcellulose) (HPC) 97 % of control | [1] 98 % of control | [2] 98 % of control | [3] 98 % of control | endpoint: mean survival time, dose: 400.0 mg/kg/injection, schedule: Q01DX009 (ip), vehicle: Klucel (hydroxypropylcellulose) (HPC) 101 % of control | endpoint: median survival time, dose: 100.0 mg/kg/injection, schedule: Q01DX009 (ip), vehicle: Klucel (hydroxypropylcellulose) (HPC) 101 % of control | endpoint: median survival time, dose: 200.0 mg/kg/injection, schedule: Q01DX009 (ip), vehicle: Klucel (hydroxypropylcellulose) (HPC) 103 % of control | endpoint: median survival time, dose: 400.0 mg/kg/injection, schedule: Q01DX009 (ip), vehicle: Klucel (hydroxypropylcellulose) (HPC) 104 % of control

CCO/C=C1\SC(=S)N(C)C1=O
inactive: endpoint: mean survival time, dose: 15.0 mg/kg/injection, schedule: Q01DX009 (ip), vehicle: saline with Tween-80 90 % of control | endpoint: mean survival time, dose: 30.0 mg/kg/injection, schedule: Q01DX009 (ip), vehicle: saline with Tween-80 87 % of control | endpoint: mean survival time, dose: 60.0 mg/kg/injection, schedule: Q01DX009 (ip), vehicle: saline with Tween-80 98 % of control

O=C(NC(=O)c1ccccc1)c1ccccc1
inactive: endpoint: mean survival time, dose: 100.0 mg/kg/injection, schedule: Q01DX001 (ip), vehicle: Klucel (hydroxypropylcellulose) (HPC) 101 % of control | [10] 103 % of control | endpoint: mean survival time, dose: 200.0 mg/kg/injection, schedule: Q01DX001 (ip), vehicle: Klucel (hydroxypropylcellulose) (HPC) 102 % of control | [13] 102 % of control | endpoint: mean survival time, dose: 400.0 mg/kg/injection, schedule: Q01DX001 (ip), vehicle: Klucel (hydroxypropylcellulose) (HPC) 96 % of control | [14] 97 % of control

NCCOc1ccc(-n2cnc3c(=O)[nH]c(N)nc32)cc1
inactive: endpoint: mean survival time, dose: 50.0 mg/kg/injection, schedule: Q04DX002 (ip), vehicle: saline with Tween-80 93 % of control | endpoint: mean survival time, dose: 100.0 mg/kg/injection, schedule: Q04DX002 (ip), vehicle: saline with Tween-80 96 % of control | endpoint: mean survival time, dose: 200.0 mg/kg/injection, schedule: Q04DX002 (ip), vehicle: saline with Tween-80 104 % of control

Nc1cccc(CCCCc2cccc(S(=O)(=O)F)c2)c1
inactive: [15] 97 % of control | [11] 95 % of control | [10] 100 % of control | [12] 97 % of control | [13] 95 % of control
